# What was measured:
# [1] = system: SVCV (鲤春病毒血症病毒); test: Inhibition of SVCV-G gene expression in EPC cells (RT-qPCR); type: cell-based; details: 12 h pretreatment, 0.1 MOI SVCV, 28 °C, 24 h
# [2] = system: SVCV-G protein (SVCV-G蛋白); test: Inhibition of SVCV-G protein expression in EPC cells (western blot); type: cell-based; details: 1-50 μM, increasing concentration, 0.1 MOI SVCV, 28 °C, 24 h
# [3] = system: SVCV (鲤春病毒血症病毒); test: Inhibition of SVCV virus particle formation (plaque assay on EPC cell supernatant); type: cell-based; details: 50 μM, EPC cells, 0.1 MOI SVCV, 28 °C, 24 h; control 10^6.11 PFU/mL
# [4] = system: SVCV (鲤春病毒血症病毒); test: Survival of SVCV-infected zebrafish fed deoxycholic acid; type: in vivo; details: 0.2 mg/fish per feeding, 7 days before injection of 10^4 PFU SVCV, 14 d observation, 16 °C; control 23.33%
# [5] = system: SVCV (鲤春病毒血症病毒); test: Viral load in organs of SVCV-infected zebrafish (absolute quantification of SVCV-G); type: in vivo; details: 5 d after SVCV infection, DCA 0.2 mg/fish fed
# [6] = system: SVCV (鲤春病毒血症病毒); test: Histopathology (H&E) of organs of SVCV-infected zebrafish; type: in vivo; details: zebrafish liver, intestine, kidney, 5 d after SVCV infection, versus SVCV infection group
# [7] = system: zebrafish (斑马鱼); test: Toxicity to zebrafish by organ histology (H&E), uninfected; type: in vivo; details: DCA-fed (0.2 mg/fish), liver, intestine, kidney histology
# [8] = system: IHNV (传染性造血器官坏死病病毒); test: Inhibition of IHNV in EPC cells (RT-qPCR of IHNV-G gene); type: cell-based; details: 50 μM, 0.1 MOI IHNV, 16 °C, 24 h, P<0.0001 vs control
# [9] = system: IHNV (传染性造血器官坏死病病毒); test: Survival of IHNV-infected rainbow trout fed deoxycholic acid; type: in vivo; details: 0.2 mg/fish per feeding, 7 days before injection of 10^4 PFU IHNV, 14 d observation, 16 °C; control 30%
# [10] = system: IHNV (传染性造血器官坏死病病毒); test: Viral load in organs of IHNV-infected rainbow trout (IHNV-G quantification); type: in vivo; details: 5 d after IHNV infection, DCA 0.2 mg/fish fed
# [11] = system: IHNV (传染性造血器官坏死病病毒); test: Histopathology (H&E) of organs of IHNV-infected rainbow trout; type: in vivo; details: rainbow trout liver, intestine, kidney, 5 d after IHNV infection, versus IHNV infection group
# [12] = system: rainbow trout (虹鳟); test: Toxicity to rainbow trout by organ histology (H&E), uninfected; type: in vivo; details: DCA-fed (0.2 mg/fish), liver, intestine, kidney histology
smiles,measurement,setting,value
C[C@H](CCC(=O)O)[C@H]1CC[C@H]2[C@@H]3CC[C@@H]4C[C@H](O)CC[C@]4(C)[C@H]3C[C@H](O)[C@]12C [去氧胆酸],inhibition at 1 µM,"[1]; 1 μM, P<0.01, read-out: decrease of SVCV-G gene expression relative to control",30.2%
same,inhibition at 5 µM,"[1]; 5 μM, P<0.001, read-out: decrease of SVCV-G gene expression relative to control",49.2%
same,inhibition at 10 µM,"[1]; 10 μM, P<0.001, read-out: decrease of SVCV-G gene expression relative to control",50.7%
same,inhibition at 20 µM,"[1]; 20 μM, P<0.0001, read-out: decrease of SVCV-G gene expression relative to control",68%
same,inhibition at 50 µM,"[1]; 50 μM, P<0.0001, read-out: decrease of SVCV-G gene expression relative to control",92%
same,SVCV G protein expression compared with control,[2],依次降低
same,SVCV detection in cell supernatant,[3],无法被检测到
same,survival rate of SVCV-infected zebrafish,[4],66.67%
same,viral load in intestine,[5]; intestine,显著降低
same,viral load in kidney,[5]; kidney,显著降低
same,viral load in liver,[5]; liver,显著降低
same,pathological damage caused by virus infection in organs,[6],明显减轻
same,toxicity to zebrafish,[7],没有毒性
same,IHNV viral load,[8],显著降低
same,survival rate of IHNV-infected rainbow trout,[9],60%
same,viral load in intestine,[10]; intestine,显著降低
same,viral load in kidney,[10]; kidney,显著降低
same,pathological damage caused by virus infection in organs,[11],明显减轻
same,toxicity to rainbow trout,[12],没有毒性

# From patent CN116919972A, “去氧胆酸在制备抗水生病毒感染的药物或添加剂中的应用” (priority 2023, dated 2023)
